From patent US9706777B2

Tested on: Alternaria solani
Experiment: Alternaria test (tomatoes)/preventive
Conditions: 100 ppm a.i.; preventive spray on young tomato plants; evaluated 3 days after inoculation; 0% = untreated control, 100% = no disease
Experimental: The degree of efficacy, expressed in % is denoted.
In this case, the efficacy which was actually observed must be greater than the value for the expected efficacy (E) calculated from the abovementioned formula.
After the spray coating has dried on, the plants are inoculated with an aqueous spore suspension of Alternaria solani. The plants are then placed in an incubation cabinet at approximately 20° C. and a relative atmospheric humidity of 100%.
The test is evaluated 3 days after the inoculation.

C#CCOc1ccc(CCNC(=O)C(OCC#C)c2ccc(Cl)cc2)cc1OC (stereo not shown) [F206 mandipropamid, mandipropamid]
Efficacy in % found: 0%
